We go through four compounds from patent US10766869B2, “Triazoles for the treatment of demyelinating dieases” (Vertex Pharmaceuticals Incorporated, priority 2015, dated 2020).

For assay [1], the system named is primary rat mixed cortical cells. Briefly: In vitro myelination assay (MBP positive myelin strands, fold myelin pixels above background). The class given is cell-based. The conditions noted are these: Rattus norvegicus, relative to baseline of no added compound; for fold induction at 1 µM: 1.0 μM compound; for fold induction at 10 µM: 10.0 μM compound. The method in brief:
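Myelination read as total MBP-immunopositive strand pixels per well, imaged at 10× after fixation on day 14 and expressed relative to untreated wells, at 1.0 and 10.0 μM. Cells: dissociated postnatal day 1 rat cortex, cultured two weeks with compound, re-dosed at days 6 and 10.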

The test system of assay [2] is C57BL/6 mice demyelinated with cuprizone. Briefly: In vivo mouse cuprizone assay (new myelin, MBP positive / MOG negative area). Conditions: for effect measured as new myelin generated in response to compound treatment compared to control with no added compound: Regimen A (QD or BID for 14 days via oral gavage), various doses; for effect (new myelin generated compared to control): Regimen A, oral gavage. The text has this:
Assays for Detecting and Measuring Remyelination Properties of Compounds In Vivo Mouse Cuprizone Assay:
Cuprizone Feeding Protocol:
2 month old female C57BL/6 mice (Stock Number: 000664) were purchased from Jackson Labs and fed for 4-10 months with a 0.2% cuprizone chow (provided by Research Diets, Product # D10020701R, Description AIN-76A Rodent Diet with 0.2% cuprizone) using cuprizone purchased from Sigma (Cat #14690-100G). Chow was provided ad libitum, and refreshed every 4 days to ensure stability of the cuprizone. Mice were maintained on this diet for 4-10 months before initiation of the experiments.
1) 24 hours prior to the start of dosing, 6 to 10 mice were switched from cuprizone chow to normal chow (Picolab rodent diet 20 EXT IRR 5053, irradiated) without added cuprizone. These mice were maintained on normal chow throughout the course of dosing.
2) 6 to 10 mice per group were randomized into new cages such that mice that were housed in one cage during the cuprizone diet were not housed together in one dose group during the study.
3) Mice were dosed with compound in one of two regimens: Regimen A: mice were dosed QD or BID for 14 days via oral gavage. Regimen B: mice were dosed QD or BID for 14 days via IP injection. However, other dosing schedules and/or routes of administration may also be used.
4) On the last day of dosing, dried blood spots were collected at multiple time points following the last dose. Often this was 30 minutes, 2, 6 and 24 hours following the final dose on day 14 via the tail vein.
Perfusion and Sectioning:
1) The day after the last day of dosing, mice were transcardially perfused with 12 ml of PBS (Sigma, P4417) followed by 20 ml of 3.2% paraformaldehyde in PBS (Electron Microscopy Sciences #15714-S). The brains were removed via standard dissection techniques and each was postfixed in 3.2% paraformaldehyde (20 ml) for 24-48 hours at room temperature in sealed scintillation vials.
2) Serial 50 micron sections were collected through the anterior posterior extent of the brain, from just behind the olfactory bulb, through visual cortex using a vibrating microtome, the V-STAR (described in International Publication No. WO 2013/012799 and U.S. Pat. No. 8,967,024 both of which are incorporated herein by reference in their entirety). Sections were collected in phosphate buffered saline (PBS). Vibratome speed was set to 1.1 mm/s and amplitude was set to 0.8 mm.
3) A series of every 24th section was removed for staining yielding 5 sections per brain.
1) Tissue sections were stained using an automated system for processing blots (hereinafter the “blotinator”) (described in WO2011/087646 and U.S. Pat. Nos. 8,337,754 and 8,679,406 each of which is incorporated herein by reference in its entirety). Brain sections were placed in the blotinator plate and bathed in PBS. The blotinator applied primary antibodies (MOG and MBP together) and Hoechst nuclear stain for 12 hours at room temperature with constant shaking.
The following stains were diluted in blocking buffer (described below):
Hoechst nuclear stain (0.5 mg/ml)(bisBenzimide H 33342 trihydrochloride Sigma #33342).
Myelin basic Protein (MBP) antibody (Abcam Cat # ab7349) was diluted at a 1:750 ratio in blocking buffer).
Myelin Oligodendrocyte Glycoprotein (MOG) (R&D systems Cat # AF2439) was diluted at a 1:250 ratio in blocking buffer.
Antibodies were diluted in blocking buffer, which consisted of 0.3% Triton X-100 (Sigma Cat #234729), 0.02% Sodium Azide (Sigma Cat # S2002) and 8% fetal bovine serum in PBS (Sigma Cat # F2442).
2) The blotinator washed the samples 4 times for 5 minutes each with a wash buffer (0.2% Triton X-100 in PBS).
3) The blotinator applied secondary antibodies diluted in blocking buffer and incubated them for 2 hours with constant shaking.
Alexa 488 donkey anti-rat secondary (Life technologies Cat # A-21208) was diluted at 1:1000 in blocking buffer. […]

The mark [3] stands for this setting: read-out: Fold myelin pixels above background, 1.0 μM.
Where [4] appears, read: read-out: Fold myelin pixels above background, 10.0 μM.
Setting [5] is: read-out: Fold myelin pixels above background.

Like-named read-outs stand apart in the source and are kept apart here.

As for `Cc1cc(Nc2ncn(-c3cc(F)cc(F)c3)n2)cc(N2CCN(C3COC3)CC2)c1` [Compound 33, 1-(3,5-difluorophenyl)-N-[3-methyl-5-[4-(oxetan-3-yl)piperazin-1-yl]phenyl]-1,2,4-triazol-3-amine], the fold induction at 1 µM in assay [1] (setting [3]) fell in the range of 100 to 1000. Moreover, the fold induction at 10 µM in assay [1] (setting [4]) is no more than 1. Also, in assay [2], the “effect measured as new myelin generated in response to compound treatment compared to control with no added compound” value is listed as “positive effect”. The “effect (new myelin generated compared to control)” value in assay [2] (10 mpk), in assay [2] (25 mpk) and in assay [2] (50 mpk) was “positive effect” in each case.
As to `Cc1cc(Nc2ncn(-c3cc(F)cc(F)c3)n2)nc(N2CCN(C3COC3)CC2)c1` [Compound 331, N-[1-(3,5-difluorophenyl)-1,2,4-triazol-3-yl]-4-methyl-6-[4-(oxetan-3-yl)piperazin-1-yl]pyridin-2-amine], in assay [1] (setting [3]), the fold induction at 1 µM lay within 1 to 10. The fold induction at 10 µM in assay [1] (setting [4]) is 10 to 100. Besides, the “effect measured as new myelin generated in response to compound treatment compared to control with no added compound” value in assay [2] is recorded as “positive effect”. Further, the “effect (new myelin generated compared to control)” value in assay [2] (20 mpk), in assay [2] (30 mpk) and in assay [2] (40 mpk) was “positive effect” throughout.
`Cc1cc(Nc2ncn(-c3cc(F)cc(F)c3)n2)cc(N2CC(N3CCOCC3)C2)c1` [Compound 485, 1-(3,5-difluorophenyl)-N-[3-methyl-5-(3-morpholinoazetidin-1-yl)phenyl]-1,2,4-triazol-3-amine]: in assay [1] (setting [5]), the fold induction at 1 µM fell in the range of 10 to 100 and the fold induction at 10 µM lay within 1 to 10. Further, the “effect measured as new myelin generated in response to compound treatment compared to control with no added compound” value in assay [2] is reported as “positive effect”. In addition, the “effect (new myelin generated compared to control)” value in assay [2] (20 mpk) is “positive effect”. For the same compound, the “effect (new myelin generated compared to control)” value in assay [2] (30 mpk) is listed as “positive effect”.
Take `Cc1cc(Nc2ncn(-c3cccc(F)c3)n2)cc(N2CCN(C3COC3)CC2)c1` [Compound 406, 1-(3-fluorophenyl)-N-[3-methyl-5-[4-(oxetan-3-yl)piperazin-1-yl]phenyl]-1,2,4-triazol-3-amine]: in assay [1] (setting [5]), the fold induction at 1 µM lay in the range of 1000 to 10000 and the fold induction at 10 µM is no more than 1. For the same compound, in assay [2], the “effect measured as new myelin generated in response to compound treatment compared to control with no added compound” value is listed as “positive effect”. For the same compound, in assay [2] (25 mpk), the “effect (new myelin generated compared to control)” value was “positive effect”. The “effect (new myelin generated compared to control)” value in assay [2] (50 mpk) is “positive effect”.
